# Tests used:
# K-562 = test: NCI60 antitumor screening; type: cell-based, human
# NCI/ADR-RES = test: NCI60 antitumor screening; type: cell-based, human
# MDA-MB-435 = test: NCI60 antitumor screening; type: cell-based, human
# U251 = test: NCI60 antitumor screening; type: cell-based, human
# NCI-H322M = test: NCI60 antitumor screening; type: cell-based, human
# EGFR^WT = target: T1, EGFR^WT (Homo sapiens, UniProt P00533); test: In vitro EGFR^WT inhibitory assay (BPS Bioscience kinase kit); type: biochemical; conditions: means ± SD of three experiments
# T1 construct: purchased BPS Bioscience 40 321
# T1 sequence (P00533 25-1210): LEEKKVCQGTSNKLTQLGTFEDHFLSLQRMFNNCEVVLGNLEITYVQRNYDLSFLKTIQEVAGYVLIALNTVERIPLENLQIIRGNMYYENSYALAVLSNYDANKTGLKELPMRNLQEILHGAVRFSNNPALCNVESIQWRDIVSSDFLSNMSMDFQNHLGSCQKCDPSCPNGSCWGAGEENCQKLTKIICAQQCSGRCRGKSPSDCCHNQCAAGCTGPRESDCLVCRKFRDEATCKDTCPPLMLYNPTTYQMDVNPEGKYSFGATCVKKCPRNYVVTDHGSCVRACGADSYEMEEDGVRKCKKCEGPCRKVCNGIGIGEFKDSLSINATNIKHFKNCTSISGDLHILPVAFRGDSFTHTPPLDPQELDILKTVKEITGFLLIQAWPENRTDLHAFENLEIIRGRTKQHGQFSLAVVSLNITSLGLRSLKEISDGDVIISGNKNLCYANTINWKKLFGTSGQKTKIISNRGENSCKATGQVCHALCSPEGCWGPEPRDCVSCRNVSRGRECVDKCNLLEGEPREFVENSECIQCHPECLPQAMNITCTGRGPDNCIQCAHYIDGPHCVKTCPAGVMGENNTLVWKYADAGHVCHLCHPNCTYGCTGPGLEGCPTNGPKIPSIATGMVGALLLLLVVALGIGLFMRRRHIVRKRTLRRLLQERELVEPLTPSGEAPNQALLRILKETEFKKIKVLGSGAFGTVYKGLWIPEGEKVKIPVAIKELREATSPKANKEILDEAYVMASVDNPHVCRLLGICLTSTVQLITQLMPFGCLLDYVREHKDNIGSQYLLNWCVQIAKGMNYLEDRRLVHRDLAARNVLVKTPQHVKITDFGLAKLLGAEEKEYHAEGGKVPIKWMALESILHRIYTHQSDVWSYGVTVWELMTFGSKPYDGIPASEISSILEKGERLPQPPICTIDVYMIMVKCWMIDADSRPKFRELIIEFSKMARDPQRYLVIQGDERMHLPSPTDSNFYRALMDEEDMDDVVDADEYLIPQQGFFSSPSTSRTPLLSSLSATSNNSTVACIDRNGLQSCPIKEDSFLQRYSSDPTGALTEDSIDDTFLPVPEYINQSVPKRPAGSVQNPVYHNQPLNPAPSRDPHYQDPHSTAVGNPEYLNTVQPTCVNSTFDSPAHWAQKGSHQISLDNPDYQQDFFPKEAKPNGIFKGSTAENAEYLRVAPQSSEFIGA
# Description: (1) Prepare the mixture of N wells × (kinase assay buffer 6 μl, ATP1 μl, PTK substrate 1 μl and water 17 μl). to every well pipette the 25 μl. […] On the contrary, add 5 μl of inhibitor buffer to control and plank wells. (3) Pipette 20 μl of EGFR^WT to test and control wells, on the blank wells pipette 20 μl kinase assay buffer. Then incubate at R.T for 40 min. (4) end the incubation after 40 min by adding to every well 50 μl of Kinase-Glo Max reagent, and incubate 15 min. By measuring the ATP quantity after kinase reaction, the activity of kinase could be detected. (5) use microplate reader to measure the luminescence.[51]
# T-47D = test: NCI60 antitumor screening; type: cell-based, human
# SW-620 = test: NCI60 antitumor screening; type: cell-based, human
# NCI-H460 = test: NCI60 antitumor screening; type: cell-based, human
# LOX IMVI = test: NCI60 antitumor screening; type: cell-based, human
# COLO 205 = test: NCI60 antitumor screening; type: cell-based, human
# HS 578T = test: NCI60 antitumor screening; type: cell-based, human
# HOP-62 = test: NCI60 antitumor screening; type: cell-based, human; conditions: Homo sapiens
# [1] = Homo sapiens, NCI-H322M, five-dose
structure (smiles),measurement,setting,value
"N#Cc1c(-c2ccc(F)cc2)nc(SCc2ccccc2)nc1N1CCNCC1 [4e, 2-(Benzylthio)-4-(4-fluorophenyl)-6-(piperazin-1-yl) pyrimidine-5-carbonitrile]",GI50,"K-562; Homo sapiens, K562, five-dose",2.21 µM
same,CC50,"K-562; Homo sapiens, K562, five-dose, read-out: LC50 (the source's name)",18.7 µM
same,inhibition at 10 µM,"K-562; Homo sapiens, 10 μM single dose, (leukaemia), read-out: growth inhibition percent (GI%)",> 100%
same,TGI,K-562; five-dose,5.42 µM
same,GI50,"NCI/ADR-RES; Homo sapiens, NCI/ADR-RES, five-dose",11.7 µM
same,CC50,"NCI/ADR-RES; Homo sapiens, NCI/ADR-RES, five-dose, read-out: LC50 (the source's name)",64.4 µM
same,inhibition at 10 µM,"NCI/ADR-RES; Homo sapiens, 10 μM single dose, NCI/ADR-RES (ovarian cancer), read-out: growth inhibition percent (GI%)",> 100%
same,TGI,NCI/ADR-RES; five-dose,27.40 µM
same,GI50,"MDA-MB-435; Homo sapiens, MDA-MB-435, five-dose",16.9 µM
same,CC50,"MDA-MB-435; Homo sapiens, MDA-MB-435, five-dose, read-out: LC50 (the source's name)",58.8 µM
same,inhibition at 10 µM,"MDA-MB-435; Homo sapiens, 10 μM single dose, MDA-MB-435 (melanoma), read-out: growth inhibition percent (GI%)",> 100%
same,TGI,MDA-MB-435; five-dose,31.50 µM
same,inhibition at 10 µM,"U251; Homo sapiens, U-251, 10 μM single dose, U251 (CNS cancer), read-out: growth inhibition percent (GI%)",> 100%
same,GI50,"U251; Homo sapiens, U-251, five-dose",4.36 µM
same,CC50,"U251; Homo sapiens, U-251, five-dose, read-out: LC50 (the source's name)",44.6 µM
same,TGI,U251; five-dose,16.10 µM
same,GI50,NCI-H322M; [1],14.3 µM
same,LC50 (50% lethal concentration),NCI-H322M; [1],54.2 µM
same,inhibition at 10 µM,"NCI-H322M; Homo sapiens, 10 μM single dose, NCI-H322M (non-small cell lung cancer), read-out: growth inhibition percent (GI%)",> 100%
same,TGI,NCI-H322M; five-dose,27.90 µM
same,IC50,EGFR^WT,0.096 ± 0.004 µM
same,inhibition at 10 µM,"T-47D; Homo sapiens, T47D, 10 μM single dose, T-47D (breast cancer), read-out: growth inhibition percent (GI%)",> 100%
same,GI50,"T-47D; Homo sapiens, T47D, five-dose",10.1 µM
same,CC50,"T-47D; Homo sapiens, T47D, five-dose, read-out: LC50 (the source's name)",61 µM
same,TGI,T-47D; five-dose,24.80 µM
same,GI50,"SW-620; Homo sapiens, SW-620, five-dose",3.38 µM
same,CC50,"SW-620; Homo sapiens, SW-620, five-dose, read-out: LC50 (the source's name)",40.9 µM
same,inhibition at 10 µM,"SW-620; Homo sapiens, 10 μM single dose, SW-620 (colon cancer), read-out: growth inhibition percent (GI%)",> 100%
same,TGI,SW-620; five-dose,13.10 µM
same,GI50,"NCI-H460; Homo sapiens, NCI-H460, five-dose",9.2 µM
same,CC50,"NCI-H460; Homo sapiens, NCI-H460, five-dose, read-out: LC50 (the source's name)",53.9 µM
same,inhibition at 10 µM,"NCI-H460; Homo sapiens, 10 μM single dose, NCI-H460 (non-small cell lung cancer), read-out: growth inhibition percent (GI%)",> 100%
same,TGI,NCI-H460; five-dose,22.90 µM
same,GI50,"LOX IMVI; Homo sapiens, LOX IMVI, five-dose",1.71 µM
same,CC50,"LOX IMVI; Homo sapiens, LOX IMVI, five-dose, read-out: LC50 (the source's name)",6.48 µM
same,inhibition at 10 µM,"LOX IMVI; Homo sapiens, 10 μM single dose, LOX IMVI (melanoma), read-out: growth inhibition percent (GI%)",> 100%
same,TGI,LOX IMVI; five-dose,3.33 µM
same,IC50,"COLO 205; Homo sapiens, COLO 205",1.66 µM
same,GI50,"COLO 205; Homo sapiens, COLO 205, five-dose",1.66 µM
same,CC50,"COLO 205; Homo sapiens, COLO 205, five-dose, read-out: LC50 (the source's name)",6.04 µM
same,inhibition at 10 µM,"COLO 205; Homo sapiens, 10 μM single dose, COLO 205 (colon cancer), read-out: growth inhibition percent (GI%)",> 100%
same,TGI,COLO 205; five-dose,3.17 µM
same,GI50,"HS 578T; Homo sapiens, Hs-578T, five-dose",14.1 µM
same,CC50,"HS 578T; Homo sapiens, Hs-578T, five-dose, read-out: LC50 (the source's name)",72.7 µM
same,inhibition at 10 µM,"HS 578T; Homo sapiens, 10 μM single dose, HS 578T (breast cancer), read-out: growth inhibition percent (GI%)",> 100%
same,TGI,HS 578T; five-dose,32.00 µM
same,GI50,"HOP-62; HOP-62, five-dose",13.2 µM
same,CC50,"HOP-62; HOP-62, five-dose, read-out: LC50 (the source's name)",59.9 µM
same,inhibition at 10 µM,"HOP-62; 10 μM single dose, HOP-62 (non-small cell lung cancer), read-out: growth inhibition percent (GI%)",> 100%

# From article PMC10620772, “Design, synthesis, and biological evaluation of new pyrimidine-5-carbonitrile derivatives as novel anti-cancer, dual EGFR^WT/COX-2 inhibitors with docking studies” (RSC Advances, 2023)
